In one test the test system is E. coli (ATCC25922). The experiment in a line: Bacteria growth assay, E. coli ATCC25922. The format is cell-based. On the procedure:
(§1) Effect of compounds on bacterial growth was measured using the method described previously with slight modifications^[1]. Colony suspension method was used to prepare bacteria suspension using McFarland Standard 0.5 to adjust the turbidity. Cells were introduced to two-fold serial dilutions of compound in a final volume of 105 μL with 5% DMSO. Mueller-Hinton broth (MH) or LB broth was used for E. coli ATCC25922 or E. coli DW37 and YX23, respectively. Plates were incubated at 37° C., and the OD600 was measured using a PerkinElmer EnVision plate reader after gentle shaking. Mutant E. coli (DW37 and YX23) were previously described.^[2] Globomycin was used as a positive control and the concentration-response curves of globomycin on bacteria growth (E. coli ATCC25922) is shown below (error bar: SD).

Another test addresses T1, Lsp from E. coli (Escherichia coli, UniProt P00804).
T1 construct: The full-length Lsp clone from E. coli (residues 1-164); His6 with enterokinase cleavage site (pET19b) (N); made in house; host or cells: E. coli Lemo21 (DE3), pET19b vector
The experiment in a line: Lsp FRET activity assay, IC50 determination. The class given is biochemical. On the procedure:
[…] […] 50 μM Lsp FRET substrate was subsequently added and the rate of substrate hydrolysis was measured by increase in fluorescence (excitation 355 nm, emission 495 nm) in 96-well plates on a PerkinElmer EnVision plate reader or Tecan Safire 2 microplate reader. Michaelis-Menten constants and […] were determined using GraphPad Prism software (GraphPad, Inc.).

The subject of test [1] is E. coli YX23. The note with it: literature [14]; cited from earlier work.
Test [2] has as its system E. coli YX23. The experiment in a line: Bacteria growth assay, Lsp-inhibition resistant mutant YX23. The class given is cell-based. On the set-up: dose or concentration left out as unconfirmed. To be noted: OD600 at 24 h. As for the experimental part: as §1
Another test deals with E. coli DW37. The experiment in a line: Bacteria growth assay, isogenic parent strain DW37. The class given is cell-based. On the set-up: dose or concentration left out as unconfirmed. To be noted: OD600 at 10 h. As for the experimental part:
as §1

The mark [3] stands for this setting: Table 5, [Lsp] = 20 nM, read-out: IC50.
Where [4] appears, read: Table 7, linker variation, E = 100 nM, read-out: IC50.
The mark [5] stands for this setting: Table 2, variation of R3, read-out: IC50.

The structures appear in SMILES notation. Entries after “also recorded” stand apart in the source; their conditions may differ. Like-named read-outs stand apart in the source and are kept apart here. Bounds are passed on as bounds.

T1 sequence (P00804 whole entry, the tested form may be a part): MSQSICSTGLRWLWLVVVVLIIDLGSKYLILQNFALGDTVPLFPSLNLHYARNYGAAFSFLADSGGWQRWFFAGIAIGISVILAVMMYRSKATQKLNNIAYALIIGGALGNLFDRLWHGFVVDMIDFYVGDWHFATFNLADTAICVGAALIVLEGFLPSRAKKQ

Regarding `COc1cc(C(=O)Nc2nnc(C3CCCCC3)s2)c([N+](=O)[O-])cc1OC` [1c, N-(5-cyclohexyl-1,3,4-thiadiazol-2-yl)-4,5-dimethoxy-2-nitrobenzamide], the “bacterial growth, in words” value in the test with E. coli (ATCC25922) (in combination with PMBN 8 mg/L) is “did not inhibit the bacterial growth”. Besides, the “potency against Lsp, in words (SAR)” value on Lsp from E. coli is “ablated the potency”. Also, on Lsp from E. coli (FRET-based assay, [Lsp] = 400 nM, mean (± SD), read-out: IC50), the IC50 is greater than 400 µM.

Take `CCCCCCC1OC(=O)CNC(=O)C(C(C)O)NC(=O)C(CO)NC(=O)C(C(C)CC)NC(=O)C(CC(C)C)N(C)C(=O)C1C` (stereo not shown) [Globomycin, globomycin]: the “resistance of YX23” value with E. coli YX23 [1] was “resistant”.

Turning to `CCC(CC)c1nnc(NC(=O)c2cc(OC)c(OC3CCCC3)cc2[N+](=O)[O-])s1` [1j, 4-(cyclopentyloxy)-5-methoxy-2-nitro-N-(5-(pentan-3-yl)-1,3,4-thiadiazol-2-yl)benzamide], the “growth of YX23” value with E. coli YX23 [2] was “resistant; also recorded: did not inhibit the growth”. Moreover, in the test on E. coli DW37, the “growth of DW37” value was “inhibited the growth”. Besides, in the test with E. coli (ATCC25922) (cultures of E. coli), the “bacterial growth, in words” value is listed as “inhibits bacterial growth”. In addition, on Lsp from E. coli, the “effect on cleaved substrate fluorescence” value is given as “no effect”. Also, the Hill constant entry on Lsp from E. coli ([S]=50 μM, [Lsp]=100 nM) is “approximately 1”. For the same molecule, at Lsp from E. coli (read-out: IC50), the half-inhibitory concentration (IC50) is 0.099 µM.

Regarding `CCCC1OC(=O)C(C)CC(C)CCCCC(=O)CCCC(CC)/C=C/C=C(\COC)CCC(O)C(O)CC(O)CNC1=O` (stereo not shown) [myxovirescin], the “resistance of YX23” value in the test with E. coli YX23 [1] is “resistant”.

For the molecule `CCC(CC)c1nnc(NC(=O)c2cc(Cl)c(NC3CCCC3)cc2[N+](=O)[O-])s1` [Sk056-16-1], the IC50 at Lsp from E. coli (setting [3]) is 0.17 µM.

For the molecule `CCC(CC)c1nnc(NC(=O)c2cc(Cl)c(OCCNC(=O)OC(C)(C)C)cc2[N+](=O)[O-])s1` [Sk061-68], the IC50 at Lsp from E. coli (setting [4]) amounted to 0.21 µM.

Consider `CCC(CC)c1nnc(NC(=O)c2cc(Cl)c(Oc3ccccc3)cc2[N+](=O)[O-])s1` [Sk056-22-2], for which the IC50 at Lsp from E. coli (setting [3]) was 0.19 µM.

For `COc1cc(C(=O)Nc2ccc(C(C)C)cn2)c([N+](=O)[O-])cc1OC` [Sk056-82-3], the IC50 at Lsp from E. coli (Table 3, read-out: IC50) was greater than 400 µM.

`CCCc1nnc(NC(=O)c2cc(OC)c(OC)cc2[N+](=O)[O-])s1` [Sk054-141-2]: the 50% inhibitory concentration (IC50) at Lsp from E. coli (setting [5]) was found to be 26 µM.

With `CCC(CC)c1nnc(NC(=O)c2ccc(OC3CCCC3)cc2[N+](=O)[O-])s1` [Sk054-116-1], at Lsp from E. coli (setting [3]), the IC50 came out at 0.4 µM.

Consider `CCC(C)c1nnc(NC(=O)c2cc(OC)c(OC)cc2[N+](=O)[O-])s1` (stereo not shown) [Sk061-69-2], for which the IC50 on Lsp from E. coli (setting [5]) came out at 8.7 µM.

Regarding `CCC(CC)c1nnc(NC(=O)c2ccc(NC(C)=O)cc2[N+](=O)[O-])s1` [Sk054-112-2], at Lsp from E. coli (Table 4, read-out: IC50), the IC50 turned out to be 160 µM.

Consider `CCC(CC)c1nnc(NC(=O)c2ccccc2C(=O)O)s1` [Sk056-24], for which the IC50 on Lsp from E. coli (Table 4, read-out: IC50) was 270 µM.

As for `CCC(CC)c1nnc(NC(=O)c2cc(Cl)c(OC3CCN(C(=O)OC(C)(C)C)CC3)cc2[N+](=O)[O-])s1` [Sk061-80-4], the IC50 at Lsp from E. coli (setting [4]) amounted to 1.1 µM.

For the molecule `COc1cc(C(=O)Nc2nnc(C(C)C)s2)c([N+](=O)[O-])cc1OC` [Sk061-69-1], the concentration for half-maximal inhibition (IC50) at Lsp from E. coli (setting [5]) is 44 µM; on Lsp from E. coli (Table 3, read-out: IC50), 44 µM.

Consider `CCC(CC)c1nnc(NC(=O)c2cc(Cl)c(Oc3ccc(N)cc3)cc2[N+](=O)[O-])s1` [Sk061-32], for which the concentration for half-maximal inhibition (IC50) at Lsp from E. coli (Table 5, E = 100 nM, read-out: IC50) is roughly 4 µM.

On Lsp from E. coli, `CCC(CC)c1nnc(NC(=O)c2ccc(NCCS(=O)(=O)F)cc2[N+](=O)[O-])s1` [Sk056-45-3] came in with an IC50 of 19 µM.

In general, IC50 refers to the point on the concentration scale where inhibition reaches its midpoint.

Values taken from US20200181101A1, “BENZAMIDE INHIBITORS OF BACTERIAL LIPOPROTEIN SIGNAL PEPTIDASE” (The Scripps Research Institute, priority 2017, published 2020).
